Measurements as given in US20220177477A1 (Central China Normal University, priority 2019, published 2022).

Tests used:
[1] = target: T1, TRKB (Homo sapiens, UniProt Q16620); assay: In vitro biochemical HTRF KinEASE kinase inhibition, TRKB; conditions: wild-type kinase, final ATP 2.56 μmol/L
T1 construct: purchased Carna Biosciences 08-187
Procedure: The material and the method are as follows: wild-type kinases such as TRKA, TRKB and TRKC, and mutant kinases such as TRKA-G595R, TRKA-G667C, TRKA-F589L, TRKC-G623R and TRKC-G696A, and are derived from Carna Biosciences 08-186, 08-187, 08-197; HTRF KinEASE TKkit (Cisbio 62TKO PEC); 384 well plates (Greiner corporation); ATP (Life technologies PV 3227), MgCl2 (sigma); PHERAstar FS Multifunctional microplate reader (BMG Co.); low speed centrifuge (StaiteXiangyi corporation); incubator (Binder company).
Preparing a compound working solution: the dispensed compounds were removed from the freezer prior to testing and diluted to 100× concentration with pure DMSO; then the compound was diluted to the desired concentration of 4× with deionized water;
Preparation of 1.33× enzyme buffer (enzyme buffer): 5× enzyme buffer (from HTRF kit) was diluted to 1.33× with deionized water and the corresponding ingredients were added at a final concentration of 1.33×: 1.33 mmol/L Dithiothreitol (DTT), 1.33 mmol/L MnCl2, 6.65 mmol/L MgCl2 and 39.9 nmol/L SEB;
Preparation of a kinase working solution: TRKA, TRKB and TRKC were diluted with 1.33× enzyme buffer to the required concentrations of 2× of 0.404 ng/μL, 0.304 ng/μL and 0.236 ng/μL, respectively;
Preparing a substrate working solution: a mixture of TK Substrate Blr diluted to the desired final concentration of 4× (from HTRF kit) and ATP (10 mM) with 1.33× enzyme buffer; the final ATP concentrations for TRKA, TRKB, and TRKC were: 3.727 μmol/L, 2.56 μmol/L and 2.526 μmol/L. The TK Substrate-biotin (from HTRF KinEASE TKkit) final concentrations were all: 0.2 μmol/L.
Preparing a detection working solution: 16.67 μmol/L of Streptavidin-XL665 (Streptavidin-XL 665) were diluted to the desired final concentration of 4× with HTRF test buffer and then mixed with an equal volume of Antibody-europium Cryptate (Antibody-Cryptate) (both from HTRF kits).
An enzyme reaction step: add 4 μL of kinase working solution to each well of a low volume 384 microwell plate along with 4 μL of 1.33× enzyme buffer as a Negative control (Negative); add 2 μl of compound working solution to the wells, while adding 2 μl of […] aqueous solution as a zero compound concentration control (i.e., Positive control, Positive); incubating at 25° C. for 5 min; add 2 μL of substrate working solution to the wells to start the enzymatic reaction, shake the reaction for 30 min at 37° C.
HTRF reagent detection step: adding […] to the hole to terminate the reaction; reacting for 1 h at 25° C.;
Reading of HTRF signal: the PHERAstar FS reading is adopted to detect signals, and the corresponding setting of the instrument is as follows:
For the raw data read out per well, the ratio=665 nm/620 nm;
Calculation of inhibition rate:
Calculation of IC50 values: with the logarithm of the compound concentration as abscissa and the inhibition as ordinate, a non-linear curve was fitted in GraphPad Prism 5: log (inhibitor) vs. response—Variable slope, and calculating the concentration of the compound to be detected, namely IC50, when the enzyme activity inhibition rate is 50%.

[2] = target: T2, TRKA-G667C (Homo sapiens, UniProt P04629, G667C); assay: TRK kinase mutant inhibition (HTRF), TRKA-G667C; assay type: biochemical
T2 construct: purchased Carna Biosciences
T2 sequence (P04629 33-796 G667C): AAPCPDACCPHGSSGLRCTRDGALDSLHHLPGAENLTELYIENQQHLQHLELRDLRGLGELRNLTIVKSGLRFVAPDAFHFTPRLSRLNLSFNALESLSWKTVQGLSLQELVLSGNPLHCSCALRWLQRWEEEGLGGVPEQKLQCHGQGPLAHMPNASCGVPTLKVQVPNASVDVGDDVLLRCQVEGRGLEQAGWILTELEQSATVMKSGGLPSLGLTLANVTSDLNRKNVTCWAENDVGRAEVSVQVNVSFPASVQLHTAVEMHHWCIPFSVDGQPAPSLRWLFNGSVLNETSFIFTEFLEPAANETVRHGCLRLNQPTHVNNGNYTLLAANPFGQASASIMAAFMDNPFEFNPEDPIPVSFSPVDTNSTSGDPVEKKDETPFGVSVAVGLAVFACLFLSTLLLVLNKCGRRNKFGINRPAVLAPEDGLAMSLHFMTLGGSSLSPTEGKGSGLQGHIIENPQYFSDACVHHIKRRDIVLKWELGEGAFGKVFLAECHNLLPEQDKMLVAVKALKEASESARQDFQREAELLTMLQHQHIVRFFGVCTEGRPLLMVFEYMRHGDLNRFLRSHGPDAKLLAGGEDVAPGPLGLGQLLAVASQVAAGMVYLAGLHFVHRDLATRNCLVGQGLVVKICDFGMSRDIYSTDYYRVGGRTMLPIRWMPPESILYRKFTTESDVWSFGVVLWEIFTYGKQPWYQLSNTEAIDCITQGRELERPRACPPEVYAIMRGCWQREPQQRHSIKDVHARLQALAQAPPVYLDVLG

[3] = target: T3, TRKC (Homo sapiens, UniProt Q16288); assay: In vitro biochemical HTRF KinEASE kinase inhibition, TRKC; conditions: wild-type kinase, final ATP 2.526 μmol/L
T3 construct: purchased Carna Biosciences 08-197
T3 sequence (Q16288 32-825 isoform Q16288-3 limits assumed): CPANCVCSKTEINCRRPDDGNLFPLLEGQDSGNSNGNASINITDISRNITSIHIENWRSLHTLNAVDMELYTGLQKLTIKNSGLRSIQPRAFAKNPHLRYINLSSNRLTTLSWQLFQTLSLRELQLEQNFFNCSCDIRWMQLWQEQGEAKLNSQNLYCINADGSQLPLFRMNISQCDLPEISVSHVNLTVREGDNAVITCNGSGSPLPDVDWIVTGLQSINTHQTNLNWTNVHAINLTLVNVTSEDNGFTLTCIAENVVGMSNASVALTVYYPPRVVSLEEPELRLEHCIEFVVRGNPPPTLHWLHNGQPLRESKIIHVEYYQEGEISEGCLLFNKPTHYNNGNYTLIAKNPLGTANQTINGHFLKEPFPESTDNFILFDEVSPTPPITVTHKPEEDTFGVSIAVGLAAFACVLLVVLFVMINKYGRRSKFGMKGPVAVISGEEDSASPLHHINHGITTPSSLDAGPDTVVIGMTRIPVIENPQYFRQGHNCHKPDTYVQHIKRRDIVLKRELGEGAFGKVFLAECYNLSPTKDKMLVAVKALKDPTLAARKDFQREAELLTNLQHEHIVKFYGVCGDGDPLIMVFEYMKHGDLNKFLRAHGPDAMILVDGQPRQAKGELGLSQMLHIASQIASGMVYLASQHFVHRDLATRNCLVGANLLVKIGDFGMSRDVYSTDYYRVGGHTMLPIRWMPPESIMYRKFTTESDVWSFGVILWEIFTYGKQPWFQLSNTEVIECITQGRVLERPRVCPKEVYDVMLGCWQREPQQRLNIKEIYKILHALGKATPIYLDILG

[4] = Drug metabolism study in rats, oral administration; conditions: rat; for CL / Vz: oral 5 mg/kg; for AUC(0-t) / Cmax / MRT last / Tmax / bioavailability / half-life: plasma, po, 5 mg/kg
[5] = target: T4, TRKC-G623R (Homo sapiens, UniProt Q16288, G623R); assay: TRK kinase mutant inhibition (HTRF), TRKC-G623R; assay type: biochemical
T4 construct: purchased Carna Biosciences
T4 sequence (Q16288 32-839 G623R): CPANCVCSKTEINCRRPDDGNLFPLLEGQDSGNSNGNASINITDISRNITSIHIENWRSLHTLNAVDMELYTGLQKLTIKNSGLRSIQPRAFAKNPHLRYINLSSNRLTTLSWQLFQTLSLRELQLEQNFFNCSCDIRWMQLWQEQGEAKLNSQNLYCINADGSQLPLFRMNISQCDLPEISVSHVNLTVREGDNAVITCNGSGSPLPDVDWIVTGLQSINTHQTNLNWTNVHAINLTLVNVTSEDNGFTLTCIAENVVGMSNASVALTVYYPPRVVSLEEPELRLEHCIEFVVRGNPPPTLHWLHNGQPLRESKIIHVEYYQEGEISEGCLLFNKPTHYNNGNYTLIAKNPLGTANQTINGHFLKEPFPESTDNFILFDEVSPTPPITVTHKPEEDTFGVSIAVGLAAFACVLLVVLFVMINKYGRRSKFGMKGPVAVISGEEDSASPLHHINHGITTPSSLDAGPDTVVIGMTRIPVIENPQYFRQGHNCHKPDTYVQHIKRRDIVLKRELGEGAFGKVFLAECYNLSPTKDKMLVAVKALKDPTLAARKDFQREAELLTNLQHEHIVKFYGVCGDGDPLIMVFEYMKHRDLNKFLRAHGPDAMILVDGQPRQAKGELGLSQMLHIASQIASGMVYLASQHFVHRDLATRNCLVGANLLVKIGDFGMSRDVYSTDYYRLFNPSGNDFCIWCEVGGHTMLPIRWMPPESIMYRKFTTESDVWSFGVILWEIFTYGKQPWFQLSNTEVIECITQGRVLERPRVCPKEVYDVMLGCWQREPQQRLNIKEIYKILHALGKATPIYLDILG

[6] = target: T5, TRKC-G696A (Homo sapiens, UniProt Q16288, G696A); assay: TRK kinase mutant inhibition (HTRF), TRKC-G696A; assay type: biochemical
T5 construct: purchased Carna Biosciences
T5 sequence (Q16288 32-839 G696A): as the sequence (Q16288 32-839 G623R) above, with R592G, G665A counted along it

[7] = target: T6, TRKA-F589L (Homo sapiens, UniProt P04629, F589L); assay: TRK kinase mutant inhibition (HTRF), TRKA-F589L; assay type: biochemical
T6 construct: purchased Carna Biosciences
T6 sequence (P04629 33-796 F589L): as the sequence (P04629 33-796 G667C) above, with F557L, C635G counted along it

[8] = target: T7, TRKA-G595R (Homo sapiens, UniProt P04629, G595R); assay: TRK kinase mutant inhibition (HTRF), TRKA-G595R; assay type: biochemical
T7 construct: purchased Carna Biosciences
T7 sequence (P04629 33-796 G595R): as the sequence (P04629 33-796 G667C) above, with G563R, C635G counted along it

[9] = target: T8, TRKA (Homo sapiens, UniProt P04629); assay: In vitro biochemical HTRF KinEASE kinase inhibition, TRKA; conditions: wild-type kinase, final ATP 3.727 μmol/L; read-out: TRKA IC50
T8 construct: purchased Carna Biosciences 08-186
T8 sequence (P04629 33-796): as the sequence (P04629 33-796 G667C) above, with C635G counted along it

[10] = Drug metabolism study in rats, intravenous administration; conditions: rat, plasma, iv, 1 mg/kg

T1 sequence (Q16620 32-822): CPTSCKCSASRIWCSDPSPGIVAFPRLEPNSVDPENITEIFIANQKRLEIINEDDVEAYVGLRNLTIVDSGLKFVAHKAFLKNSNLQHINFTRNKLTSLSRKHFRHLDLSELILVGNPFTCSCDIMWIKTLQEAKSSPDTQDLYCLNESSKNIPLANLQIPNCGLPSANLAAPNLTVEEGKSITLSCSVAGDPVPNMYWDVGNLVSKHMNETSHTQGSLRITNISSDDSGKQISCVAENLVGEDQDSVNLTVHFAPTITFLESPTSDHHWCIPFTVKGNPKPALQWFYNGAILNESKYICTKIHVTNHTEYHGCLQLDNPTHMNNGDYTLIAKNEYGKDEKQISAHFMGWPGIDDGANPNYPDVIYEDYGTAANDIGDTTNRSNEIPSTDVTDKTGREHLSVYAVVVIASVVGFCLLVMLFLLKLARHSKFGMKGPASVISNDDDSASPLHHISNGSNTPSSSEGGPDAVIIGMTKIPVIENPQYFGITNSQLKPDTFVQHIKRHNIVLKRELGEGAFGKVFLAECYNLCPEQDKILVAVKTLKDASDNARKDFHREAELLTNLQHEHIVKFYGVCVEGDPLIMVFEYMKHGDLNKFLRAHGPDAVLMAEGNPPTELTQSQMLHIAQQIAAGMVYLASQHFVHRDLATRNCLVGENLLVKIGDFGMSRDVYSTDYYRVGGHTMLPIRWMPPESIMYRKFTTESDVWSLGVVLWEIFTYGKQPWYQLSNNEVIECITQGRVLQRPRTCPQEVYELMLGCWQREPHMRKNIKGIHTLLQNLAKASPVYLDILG

Row | Compound | IC50 [1] | IC50 [2] | IC50 [3] | IC50 [5] | IC50 [6] | IC50 [7] | IC50 [8] | IC50 [9] | further results
1 | C[C@@H](Nc1ccn2ncc(-c3cnn(C)c3)c2n1)c1cc(F)ccc1OCC(F)(F)F [Compound a23-31, (R)-N-(1-(5-fluoro-2-(2,2,2-trifluoroethoxy)phenyl)ethyl)-3-(1-methyl-1H-pyrazol-4-yl) pyrazolo [1,5-a] pyrimidin-5-amine] | 3 nM | 1.37 nM | 6.1 nM | 1.7 nM | 0.88 nM | 0.38 nM | 1.5 nM | 4 nM | –
2 | C[C@@H](Nc1ccn2ncc(-c3cnn(CCO)c3)c2n1)c1cc(F)ccc1OCC(F)(F)F [Compound a24-32, (R)-2-(4-(5-((1-(5-fluoro-2-(2,2,2-trifluoroethoxy)phenyl)ethyl)amino)pyrazolo [1,5-a]pyrimidin-3-yl)-1H-pyrazol-1-yl) ethanol] | 1.4 nM | 1.39 nM | 2.9 nM | 1.1 nM | 0.75 nM | 0.44 nM | 0.94 nM | 3.1 nM | CL [4]: 105 mL/min/kg; Vz [4]: 28.2 L/kg; AUC(0-t) [4]: 816 ng·h/mL; Cmax [4]: 195 ng/mL; MRT last [4]: 3.8 h; Tmax [4]: 0.5 h; bioavailability [4]: 47.6%; half-life [4]: 3.2 h; AUC(0-t) [10]: 343 ng·h/mL; Cmax [10]: 155 ng/mL; MRT last [10]: 4.29 h; Vd [10]: 22.8 L/kg; clearance [10]: 47.7 mL/min/kg; half-life [10]: 5.51 h
3 | C[C@@H](Nc1ccn2ncc(-c3cn[nH]c3)c2n1)c1cc(F)ccc1OCCF [Compound b7-16, (R)-N-(1-(5-fluoro-2-(2-fluoroethoxy)phenyl)ethyl)-3-(1H-pyrazol-4-yl) pyrazolo [1,5-a] pyrimidin-5-amine] | 2.5 nM | 1 nM | 3 nM | 0.93 nM | 0.77 nM | 0.32 nM | 1.1 nM | 2.5 nM | –
4 | CC(Nc1ccn2ncc(-c3cn[nH]c3)c2n1)c1cc(F)cc(OCC(F)F)c1 (stereo not drawn) [Control Compound C, reference compound] | > 1000 nM | > 1000 nM | > 1000 nM | > 1000 nM | > 1000 nM | > 1000 nM | > 1000 nM | > 1000 nM | –
5 | CC(Nc1ccn2ncc(-c3cn[nH]c3)c2n1)c1ccc(OCC(F)F)c(F)c1 (stereo not drawn) [Control Compound D, reference compound] | > 1000 nM | > 1000 nM | > 1000 nM | > 1000 nM | > 1000 nM | > 1000 nM | > 1000 nM | > 1000 nM | –

More lines, in order of falling IC50 [2], values ahead:

Row | IC50 [1] | IC50 [2] | IC50 [3] | IC50 [5] | IC50 [6] | IC50 [7] | IC50 [8] | IC50 [9] | Compound | further results
6 | 1.5 nM | 3.2 nM | 3.5 nM | 2.9 nM | 1.1 nM | 0.4 nM | 1.2 nM | 2.4 nM | C[C@@H](Nc1ccn2ncc(-c3cnn(C)c3)c2n1)c1cc(F)ccc1OC(F)F [Compound a4-8] | –
7 | 1.9 nM | 1.76 nM | 3.1 nM | 0.45 nM | 0.76 nM | 0.22 nM | 0.84 nM | 1.9 nM | C[C@@H](Nc1ccn2ncc(-c3cn[nH]c3)c2n1)c1cc(F)ccc1OCC(F)F [Compound 1, (R)-N-(1-(2-(2,2-difluoroethoxy)-5-fluorophenyl)ethyl)-3-(1H-pyrazol-4-yl) pyrazolo [1,5-a] pyrimidin-5-amine] | CL [4]: 126 mL/min/kg; Vz [4]: 48.49 L/kg; AUC(0-t) [4]: 650 ng·h/mL; Cmax [4]: 109 ng/mL; MRT last [4]: 5.69 h; Tmax [4]: 0.83 h; bioavailability [4]: 29.9%; half-life [4]: 4.44 h; AUC(0-t) [10]: 434 ng·h/mL; Cmax [10]: 260 ng/mL; MRT last [10]: 3.62 h; Vd [10]: 16.9 L/kg; clearance [10]: 38.5 mL/min/kg; half-life [10]: 5.1 h
8 | – | 1 nM | – | 0.93 nM | 0.77 nM | 0.32 nM | 1.1 nM | 10.9 nM | CC(Nc1ccn2ncc(-c3cnn(C(F)F)c3)c2n1)c1cc(F)ccc1OCCF (stereo not drawn) [Compound a11-18, 3-(1-(difluoromethyl)-1H-pyrazol-4-yl)-N-(1-(5-fluoro-2-(2-fluoroethoxy)phenyl)ethyl) pyrazolo [1,5-a] pyrimidin-5-amine] | –
